Test results published in the NIST ThermoML archive (doi:10.1016/j.fluid.2019.05.015).

Assays:
[1] = refractive index (Na D-line) (dimensionless); xn = mol fraction of the nth substance listed; conditions: 100 kPa, Liquid, Standard Abbe refractometry
[2] = mean ionic activity coefficient (dimensionless); mn = molality of the nth substance listed, in mol/kg; conditions: 100 kPa, Liquid, Electrochemical cell potential

CCn1cc[n+](C)c1.[Br-] [1-ethyl-3-methylimidazolium bromide] + O
Conditions | mean ionic activity coefficient | refractive index
[1], 298.2 K, x2 = 0.0971 | – | 1.549
[1], 298.2 K, x2 = 0.188 | – | 1.545
[1], 298.2 K, x2 = 0.2981 | – | 1.536
[1], 298.2 K, x2 = 0.3857 | – | 1.5335
[1], 298.2 K, x2 = 0.471 | – | 1.525
[1], 298.2 K, x2 = 0.5966 | – | 1.5115
[1], 298.2 K, x2 = 0.6884 | – | 1.4985
[1], 298.2 K, x2 = 0.7863 | – | 1.4625
[1], 298.2 K, x2 = 0.8884 | – | 1.4305
[1], 308.2 K, x2 = 0.0926 | – | 1.5455
[1], 308.2 K, x2 = 0.1801 | – | 1.5425
[1], 308.2 K, x2 = 0.2947 | – | 1.534
[1], 308.2 K, x2 = 0.3829 | – | 1.53
[1], 308.2 K, x2 = 0.4714 | – | 1.5235
[1], 308.2 K, x2 = 0.5983 | – | 1.509
[1], 308.2 K, x2 = 0.6871 | – | 1.4955
[1], 308.2 K, x2 = 0.7851 | – | 1.4595
[1], 308.2 K, x2 = 0.888 | – | 1.427
[1], 318.2 K, x2 = 0.0923 | – | 1.5425
[1], 318.2 K, x2 = 0.1796 | – | 1.54
[1], 318.2 K, x2 = 0.2939 | – | 1.531
[1], 318.2 K, x2 = 0.382 | – | 1.5265
[1], 318.2 K, x2 = 0.4704 | – | 1.521
[1], 318.2 K, x2 = 0.5974 | – | 1.5065
[1], 318.2 K, x2 = 0.6862 | – | 1.4925
[1], 318.2 K, x2 = 0.7844 | – | 1.458
[1], 318.2 K, x2 = 0.8876 | – | 1.425
[2], 298.2 K, m1 = 0.021 | 0.8957 | –
[2], 298.2 K, m1 = 0.0419 | 0.748 | –
[2], 298.2 K, m1 = 0.0585 | 0.7149 | –
[2], 298.2 K, m1 = 0.0791 | 0.6998 | –
[2], 298.2 K, m1 = 0.0995 | 0.6908 | –
[2], 298.2 K, m1 = 0.2548 | 0.5703 | –
[2], 298.2 K, m1 = 0.4968 | 0.4953 | –
[2], 298.2 K, m1 = 0.7334 | 0.45 | –
[2], 298.2 K, m1 = 1.003 | 0.397 | –
[2], 298.2 K, m1 = 1.244 | 0.378 | –
[2], 298.2 K, m1 = 1.489 | 0.361 | –
[2], 308.2 K, m1 = 0.0211 | 0.8798 | –
[2], 308.2 K, m1 = 0.042 | 0.8527 | –
[2], 308.2 K, m1 = 0.0586 | 0.8229 | –
[2], 308.2 K, m1 = 0.0793 | 0.769 | –
[2], 308.2 K, m1 = 0.0999 | 0.7385 | –
[2], 308.2 K, m1 = 0.2555 | 0.6299 | –
[2], 308.2 K, m1 = 0.4948 | 0.5249 | –
[2], 308.2 K, m1 = 0.7324 | 0.4686 | –
[2], 308.2 K, m1 = 1.003 | 0.42 | –
[2], 308.2 K, m1 = 1.245 | 0.39 | –
[2], 308.2 K, m1 = 1.489 | 0.375 | –
[2], 308.2 K, m1 = 1.744 | 0.363 | –
[2], 308.2 K, m1 = 1.995 | 0.346 | –
[2], 308.2 K, m1 = 2.251 | 0.322 | –
[2], 308.2 K, m1 = 2.499 | 0.307 | –
[2], 318.2 K, m1 = 0.0093 | 0.8999 | –
[2], 318.2 K, m1 = 0.0187 | 0.8927 | –
[2], 318.2 K, m1 = 0.0418 | 0.8287 | –
[2], 318.2 K, m1 = 0.0603 | 0.7921 | –
[2], 318.2 K, m1 = 0.0786 | 0.7691 | –
[2], 318.2 K, m1 = 0.1014 | 0.7508 | –
[2], 318.2 K, m1 = 0.2568 | 0.6434 | –
[2], 318.2 K, m1 = 0.4956 | 0.5317 | –
[2], 318.2 K, m1 = 0.7332 | 0.4709 | –
[2], 318.2 K, m1 = 1.003 | 0.423 | –
[2], 318.2 K, m1 = 1.244 | 0.399 | –
[2], 318.2 K, m1 = 1.487 | 0.385 | –
[2], 318.2 K, m1 = 1.743 | 0.366 | –
[2], 318.2 K, m1 = 1.995 | 0.344 | –
[2], 318.2 K, m1 = 2.251 | 0.33 | –
[2], 318.2 K, m1 = 2.5 | 0.32 | –
